The values that follow come from US20100010025A1, “Pyrimidine Derivatives” (Norvartis AG, priority 2006, published 2010).

In one test the target is T1, JAK-2 (Homo sapiens, UniProt O60674).
T1 construct: contain the kinase domain (JH-1 domain) of the full length proteins and are used as GST fusion proteins
Briefly: JAK kinase assay (JAK-2), time-resolved fluorescence energy transfer or radiometric filter-binding/flash plate. The test is classed as biochemical. The settings on record: GST fusion of JAK-2 kinase domain (JH-1). The procedure:
(§1) JAK-2 or JAK-3 enzymatic activity is determined using a time-resolved fluorescence energy transfer technology. The phosphorylation of a synthetic biotinylated peptide substrate (GGEEEYFELVKKKK) by either JAK-2 or JAK-3 in the presence of ATP is quantified using Europium labeled anti phosphotyrosine antibody and Streptavidin-Allophycocyanin Both JAK-2 and JAK-3 enzymes used in these assays contain the kinase domain (JH-1 domain) of the full length proteins and are used as GST fusion proteins.
(§2) Inhibitors are dissolved in DMSO. Dilutions are prepared in 90% DMSO followed by additional dilutions steps as required to perform a 8-point concentration-response.
(§3) The reaction mix consists of 5 μL of diluted compound, 10 μl of assay buffer and 5 μl of enzyme dilution. After incubation for 60 minutes at room temperature the reaction is stopped by the addition of EDTA. For detection of the product anti-phosphotyrosine antibody and Streptavidin-APC are added and after 60 minutes the samples are measured in an EnVision 2102 Multilabel Reader with excitation wavelength of 320 nm and emission at 665 nm. […] Membranes are counted after drying at ambient temperature, mounting in Packard TopCount 96-well frame, and addition of 10 μl/well of Microscint. The plates are eventually sealed and counted in a microplate scintillation counter (TopCount NXT, TopCount NXT HTS, PerkinElmer, Brussels, Belgium).

The target in a further test is T2, JAK-3 (Homo sapiens, UniProt P52333).
T2 construct: contain the kinase domain (JH-1 domain) of the full length proteins and are used as GST fusion proteins
Briefly: JAK kinase assay (JAK-3), time-resolved fluorescence energy transfer or radiometric filter-binding/flash plate. The test is classed as biochemical. The conditions noted are these: GST fusion of JAK-3 kinase domain (JH-1). The procedure: as §1, §2, §3

The structures appear in SMILES notation.

T1 sequence (O60674 849-1124 limits assumed, species assumed): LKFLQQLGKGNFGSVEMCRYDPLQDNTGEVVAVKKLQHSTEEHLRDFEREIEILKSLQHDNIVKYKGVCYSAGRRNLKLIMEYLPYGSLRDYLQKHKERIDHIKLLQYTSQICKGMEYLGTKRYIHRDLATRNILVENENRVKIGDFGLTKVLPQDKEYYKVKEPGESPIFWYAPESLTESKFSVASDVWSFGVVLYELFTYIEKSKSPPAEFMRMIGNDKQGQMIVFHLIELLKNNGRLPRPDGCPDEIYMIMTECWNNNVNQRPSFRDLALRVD
T2 sequence (P52333 822-1111 limits assumed, species assumed): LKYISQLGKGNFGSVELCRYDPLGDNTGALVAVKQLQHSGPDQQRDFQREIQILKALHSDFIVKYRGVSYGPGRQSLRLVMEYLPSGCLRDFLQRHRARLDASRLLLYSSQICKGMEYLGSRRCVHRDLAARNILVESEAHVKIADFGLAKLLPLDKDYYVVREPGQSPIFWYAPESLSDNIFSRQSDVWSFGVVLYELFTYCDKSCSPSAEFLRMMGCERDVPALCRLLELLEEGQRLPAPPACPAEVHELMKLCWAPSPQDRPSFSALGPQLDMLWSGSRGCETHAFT

Regarding `CNS(=O)(=O)c1ccccc1Nc1nc(Nc2cc(OC)ccc2F)ncc1C(N)=O` [Example 5, 2-(2-Fluoro-5-methoxy-phenylamino)-4-(2-methylsulfamoyl-phenylamino)-pyrimidine-5-carboxylic acid amide], at JAK-2, the 50% inhibitory concentration (IC50) was 179 nM.
`COc1ccc(F)c(Nc2ncc(C(N)=O)c(Nc3ccccc3N(C)S(C)(=O)=O)n2)c1` [Example 6, 2-(2-Fluoro-5-methoxy-phenylamino)-4-[2-(methanesulfonyl-methyl-amino)-phenylamino]-pyrimidine-5-carboxylic acid amide]: the IC50 at JAK-3 is 26 nM.
